Results taken from patent publication US6949565B2, “Protein kinase inhibitors” (Develogen Israel Ltd., priority 2000, dated 2005).

System: PKC
Experiment: PKC activity inhibition
Type: biochemical

IC50: 31 µM
SMILES: O=S(=O)(NCCNCC=Cc1ccc(Br)cc1)c1cccc2cnccc12 [H-89, N-[2-(p-bromocinnamylamino)ethyl]-5-isoquinolinesulfonamide]
